Laboratory results reported in article PMC12406203 (Journal of Medicinal Chemistry, 2025).

Experiments:
Test in all cases: KINOMEscan
Type in all cases: binding
MAP3K4 = molecular target: T1, MAP3K4 (Homo sapiens, UniProt Q9Y6R4)
T1 construct: purchased Eurofins DiscoverX, LLC; host or cells: E. coli (BL21-derived, T7 phage) or HEK-293

RIOK2 = molecular target: T2, RIOK2 (Homo sapiens, UniProt Q9BVS4)
T2 construct: purchased Eurofins DiscoverX, LLC; host or cells: E. coli BL21-derived host (T7 phage) or HEK-293
T2 sequence (Q9BVS4 whole entry): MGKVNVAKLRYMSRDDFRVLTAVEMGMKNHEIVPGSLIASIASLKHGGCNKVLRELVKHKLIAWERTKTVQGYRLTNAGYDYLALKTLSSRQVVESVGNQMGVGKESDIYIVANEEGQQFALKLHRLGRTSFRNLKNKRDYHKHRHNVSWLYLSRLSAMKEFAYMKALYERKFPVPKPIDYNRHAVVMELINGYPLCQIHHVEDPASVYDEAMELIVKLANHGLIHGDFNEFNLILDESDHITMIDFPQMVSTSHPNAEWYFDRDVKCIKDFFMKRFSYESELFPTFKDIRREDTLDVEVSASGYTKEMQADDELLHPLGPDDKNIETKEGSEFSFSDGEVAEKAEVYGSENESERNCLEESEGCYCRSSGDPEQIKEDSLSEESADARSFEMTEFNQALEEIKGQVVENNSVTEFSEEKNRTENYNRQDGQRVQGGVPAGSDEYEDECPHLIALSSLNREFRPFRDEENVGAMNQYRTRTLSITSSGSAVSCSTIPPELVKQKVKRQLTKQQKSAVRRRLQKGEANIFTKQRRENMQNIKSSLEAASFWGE

p38γ = molecular target: T3, p38γ (Homo sapiens, UniProt P53778)
T3 construct: purchased Eurofins DiscoverX, LLC; host or cells: E. coli (BL21-derived, T7 phage) or HEK-293
T3 sequence (P53778 1-367): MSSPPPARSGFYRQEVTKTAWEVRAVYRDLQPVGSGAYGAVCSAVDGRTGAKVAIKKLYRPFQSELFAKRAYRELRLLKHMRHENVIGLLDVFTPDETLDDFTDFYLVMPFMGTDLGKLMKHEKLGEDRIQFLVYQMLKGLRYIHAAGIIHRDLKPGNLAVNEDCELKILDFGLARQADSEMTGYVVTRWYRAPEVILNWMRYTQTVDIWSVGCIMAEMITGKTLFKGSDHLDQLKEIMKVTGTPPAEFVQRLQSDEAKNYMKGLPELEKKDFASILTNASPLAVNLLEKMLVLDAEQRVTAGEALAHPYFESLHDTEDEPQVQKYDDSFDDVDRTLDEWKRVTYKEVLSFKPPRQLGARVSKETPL

CHEK1 = molecular target: T4, CHEK1 (Homo sapiens, UniProt O14757)
T4 construct: purchased Eurofins DiscoverX, LLC; host or cells: E. coli (T7 phage) or HEK-293
T4 sequence (O14757 1-476): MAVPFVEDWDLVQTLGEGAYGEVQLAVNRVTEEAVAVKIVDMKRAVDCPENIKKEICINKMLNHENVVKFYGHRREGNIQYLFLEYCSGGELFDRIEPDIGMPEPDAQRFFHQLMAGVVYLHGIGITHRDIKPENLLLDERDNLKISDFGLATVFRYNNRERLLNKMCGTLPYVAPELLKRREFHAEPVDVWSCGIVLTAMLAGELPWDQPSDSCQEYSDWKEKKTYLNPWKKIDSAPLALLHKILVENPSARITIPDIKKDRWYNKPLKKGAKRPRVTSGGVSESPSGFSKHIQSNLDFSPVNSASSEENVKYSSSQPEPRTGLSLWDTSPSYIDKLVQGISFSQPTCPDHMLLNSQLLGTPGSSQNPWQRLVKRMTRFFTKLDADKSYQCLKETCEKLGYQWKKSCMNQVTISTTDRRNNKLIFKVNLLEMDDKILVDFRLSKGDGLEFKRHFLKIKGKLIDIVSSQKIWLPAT

CDK9 = molecular target: T5, CDK9 (Homo sapiens, UniProt P50750)
T5 construct: purchased Eurofins DiscoverX, LLC; host or cells: E. coli (T7 phage) or HEK-293
T5 sequence (P50750 whole entry): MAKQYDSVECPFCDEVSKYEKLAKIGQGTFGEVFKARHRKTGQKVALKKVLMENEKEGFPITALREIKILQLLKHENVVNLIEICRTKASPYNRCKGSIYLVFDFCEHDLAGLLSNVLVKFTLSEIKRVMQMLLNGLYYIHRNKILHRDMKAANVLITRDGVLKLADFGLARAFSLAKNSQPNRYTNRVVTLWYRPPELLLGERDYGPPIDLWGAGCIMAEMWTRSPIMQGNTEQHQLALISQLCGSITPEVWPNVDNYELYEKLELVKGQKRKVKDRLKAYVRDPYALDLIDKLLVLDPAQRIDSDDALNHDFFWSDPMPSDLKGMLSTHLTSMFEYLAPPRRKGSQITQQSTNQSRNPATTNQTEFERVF

CDK11 = molecular target: T6, CDK11 (Homo sapiens, UniProt Q9BWU1)
T6 construct: purchased Eurofins DiscoverX, LLC; host or cells: E. coli BL21-derived (T7 phage) or HEK-293
T6 sequence (Q9BWU1 whole entry): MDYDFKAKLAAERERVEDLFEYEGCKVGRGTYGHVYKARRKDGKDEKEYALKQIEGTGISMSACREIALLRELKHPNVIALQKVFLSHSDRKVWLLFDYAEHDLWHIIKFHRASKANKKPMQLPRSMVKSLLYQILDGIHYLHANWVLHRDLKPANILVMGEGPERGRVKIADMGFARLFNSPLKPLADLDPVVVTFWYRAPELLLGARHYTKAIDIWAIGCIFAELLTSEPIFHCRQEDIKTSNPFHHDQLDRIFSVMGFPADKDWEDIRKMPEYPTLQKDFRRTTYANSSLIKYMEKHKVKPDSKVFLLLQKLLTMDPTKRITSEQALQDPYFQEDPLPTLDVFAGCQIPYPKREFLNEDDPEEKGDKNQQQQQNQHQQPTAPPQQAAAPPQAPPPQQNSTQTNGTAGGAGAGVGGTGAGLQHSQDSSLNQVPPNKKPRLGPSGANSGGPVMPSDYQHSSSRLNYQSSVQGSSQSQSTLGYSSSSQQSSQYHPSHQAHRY

NLK = molecular target: T7, NLK (Homo sapiens, UniProt Q9UBE8)
T7 construct: purchased Eurofins DiscoverX, LLC; host or cells: E. coli (BL21-derived, T7 phage) or HEK-293
T7 sequence (Q9UBE8 1-527): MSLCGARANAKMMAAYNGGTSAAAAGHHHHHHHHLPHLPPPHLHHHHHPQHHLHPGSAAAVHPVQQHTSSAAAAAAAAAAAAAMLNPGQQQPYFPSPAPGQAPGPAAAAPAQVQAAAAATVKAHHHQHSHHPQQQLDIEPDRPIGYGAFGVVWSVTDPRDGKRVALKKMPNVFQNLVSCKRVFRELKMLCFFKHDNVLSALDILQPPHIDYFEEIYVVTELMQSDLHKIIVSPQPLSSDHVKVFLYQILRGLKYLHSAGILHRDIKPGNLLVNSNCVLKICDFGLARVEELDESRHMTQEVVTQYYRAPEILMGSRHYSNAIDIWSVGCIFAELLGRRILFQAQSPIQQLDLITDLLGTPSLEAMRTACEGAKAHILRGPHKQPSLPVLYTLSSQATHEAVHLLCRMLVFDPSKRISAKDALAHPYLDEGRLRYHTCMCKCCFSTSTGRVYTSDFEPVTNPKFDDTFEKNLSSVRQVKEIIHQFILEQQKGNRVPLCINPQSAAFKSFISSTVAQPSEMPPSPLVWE

EGFR = molecular target: T8, EGFR (Homo sapiens, UniProt P00533)
T8 construct: purchased Eurofins DiscoverX, LLC; host or cells: E. coli (T7 phage) or HEK-293
T8 sequence (P00533 25-1210): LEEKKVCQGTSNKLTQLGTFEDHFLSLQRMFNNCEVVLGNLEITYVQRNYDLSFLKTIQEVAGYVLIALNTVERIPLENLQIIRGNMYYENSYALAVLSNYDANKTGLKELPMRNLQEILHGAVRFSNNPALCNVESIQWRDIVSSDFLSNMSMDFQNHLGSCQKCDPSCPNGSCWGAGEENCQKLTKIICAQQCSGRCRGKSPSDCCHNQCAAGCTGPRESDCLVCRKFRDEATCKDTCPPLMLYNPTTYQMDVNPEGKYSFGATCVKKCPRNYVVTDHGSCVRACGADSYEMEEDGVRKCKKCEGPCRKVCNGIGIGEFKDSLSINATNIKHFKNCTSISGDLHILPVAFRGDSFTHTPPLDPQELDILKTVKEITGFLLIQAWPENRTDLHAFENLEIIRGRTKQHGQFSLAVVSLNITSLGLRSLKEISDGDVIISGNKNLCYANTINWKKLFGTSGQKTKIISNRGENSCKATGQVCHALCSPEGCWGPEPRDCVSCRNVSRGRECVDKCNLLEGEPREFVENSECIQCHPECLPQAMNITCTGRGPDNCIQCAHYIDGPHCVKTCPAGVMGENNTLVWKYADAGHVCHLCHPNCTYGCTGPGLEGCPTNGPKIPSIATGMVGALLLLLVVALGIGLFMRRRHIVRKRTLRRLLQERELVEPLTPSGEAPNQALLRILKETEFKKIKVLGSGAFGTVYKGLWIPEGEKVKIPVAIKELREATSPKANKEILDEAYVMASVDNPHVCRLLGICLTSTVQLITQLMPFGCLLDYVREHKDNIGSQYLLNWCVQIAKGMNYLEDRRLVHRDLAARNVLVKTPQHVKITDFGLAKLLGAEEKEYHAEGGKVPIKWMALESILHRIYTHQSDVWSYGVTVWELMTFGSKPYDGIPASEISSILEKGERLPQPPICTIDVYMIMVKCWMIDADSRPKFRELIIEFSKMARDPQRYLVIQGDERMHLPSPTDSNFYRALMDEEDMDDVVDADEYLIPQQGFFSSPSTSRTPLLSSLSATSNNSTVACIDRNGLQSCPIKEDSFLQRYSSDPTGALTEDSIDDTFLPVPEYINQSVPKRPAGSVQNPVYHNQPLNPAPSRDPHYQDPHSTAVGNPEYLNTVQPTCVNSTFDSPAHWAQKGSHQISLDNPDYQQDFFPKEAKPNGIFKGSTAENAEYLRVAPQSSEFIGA

PIK3CG = molecular target: T9, PIK3CG (Homo sapiens, UniProt P48736)
T9 construct: purchased Eurofins DiscoverX, LLC; host or cells: E. coli BL21-derived host (T7 phage) or HEK-293

T1 sequence (Q9Y6R4 whole entry): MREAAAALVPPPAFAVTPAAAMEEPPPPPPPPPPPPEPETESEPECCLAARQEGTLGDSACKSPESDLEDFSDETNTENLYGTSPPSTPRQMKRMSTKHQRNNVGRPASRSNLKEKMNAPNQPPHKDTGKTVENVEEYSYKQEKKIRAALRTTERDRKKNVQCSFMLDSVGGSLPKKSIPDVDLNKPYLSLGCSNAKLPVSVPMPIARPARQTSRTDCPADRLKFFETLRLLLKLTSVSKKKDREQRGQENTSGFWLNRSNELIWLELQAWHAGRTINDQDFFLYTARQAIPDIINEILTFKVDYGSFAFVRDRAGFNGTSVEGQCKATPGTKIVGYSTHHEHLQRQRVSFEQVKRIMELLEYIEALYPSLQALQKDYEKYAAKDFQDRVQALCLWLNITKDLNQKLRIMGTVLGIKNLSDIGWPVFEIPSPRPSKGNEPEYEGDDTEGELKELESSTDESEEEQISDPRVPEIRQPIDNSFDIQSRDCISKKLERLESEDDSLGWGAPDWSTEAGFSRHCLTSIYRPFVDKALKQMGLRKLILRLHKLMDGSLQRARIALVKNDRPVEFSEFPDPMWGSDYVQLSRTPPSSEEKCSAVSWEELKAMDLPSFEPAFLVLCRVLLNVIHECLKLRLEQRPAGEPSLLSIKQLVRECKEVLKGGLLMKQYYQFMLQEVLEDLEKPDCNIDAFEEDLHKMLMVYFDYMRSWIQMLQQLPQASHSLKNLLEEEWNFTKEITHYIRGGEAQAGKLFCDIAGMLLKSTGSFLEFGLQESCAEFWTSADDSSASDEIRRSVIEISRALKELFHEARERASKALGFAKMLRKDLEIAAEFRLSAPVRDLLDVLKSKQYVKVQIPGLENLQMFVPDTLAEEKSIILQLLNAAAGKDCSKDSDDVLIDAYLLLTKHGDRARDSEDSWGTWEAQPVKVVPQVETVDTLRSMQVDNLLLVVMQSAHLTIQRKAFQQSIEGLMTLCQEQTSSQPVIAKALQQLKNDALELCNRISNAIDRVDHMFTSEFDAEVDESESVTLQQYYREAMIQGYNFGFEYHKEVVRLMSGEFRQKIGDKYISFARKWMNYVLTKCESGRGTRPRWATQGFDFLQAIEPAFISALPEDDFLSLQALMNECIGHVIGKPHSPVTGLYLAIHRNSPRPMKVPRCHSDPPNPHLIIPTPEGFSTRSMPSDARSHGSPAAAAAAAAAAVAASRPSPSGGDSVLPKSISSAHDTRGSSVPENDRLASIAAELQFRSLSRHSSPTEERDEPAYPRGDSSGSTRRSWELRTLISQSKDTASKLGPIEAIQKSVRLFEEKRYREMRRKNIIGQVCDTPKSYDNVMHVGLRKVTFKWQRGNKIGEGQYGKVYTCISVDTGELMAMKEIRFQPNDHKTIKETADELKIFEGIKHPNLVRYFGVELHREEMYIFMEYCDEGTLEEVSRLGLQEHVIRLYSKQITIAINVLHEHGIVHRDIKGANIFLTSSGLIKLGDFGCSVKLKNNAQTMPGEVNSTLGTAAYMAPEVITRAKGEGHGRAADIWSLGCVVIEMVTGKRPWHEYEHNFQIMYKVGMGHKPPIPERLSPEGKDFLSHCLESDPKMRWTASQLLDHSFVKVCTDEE

SMILES | RA @ 1000nM (MAP3K4) [%] | RA @ 10000nM (MAP3K4) [%] | RA @ 1000nM (RIOK2) [%] | RA @ 10000nM (RIOK2) [%] | RA @ 1000nM (p38γ) [%] | RA @ 10000nM (p38γ) [%] | RA @ 1000nM (CHEK1) [%] | RA @ 10000nM (CHEK1) [%] | RA @ 1000nM (CDK9) [%] | RA @ 10000nM (CDK9) [%] | RA @ 1000nM (CDK11) [%] | RA @ 10000nM (CDK11) [%] | RA @ 1000nM (NLK) [%] | RA @ 10000nM (NLK) [%] | RA @ 1000nM (EGFR) [%] | RA @ 10000nM (EGFR) [%] | RA @ 1000nM (PIK3CG) [%] | RA @ 10000nM (PIK3CG) [%]
CC(C)Cn1ncc2cc(Cc3ccc(F)cc3F)c(C(=O)NCCN(C)C)cc21 [Compound 94, 5-(2,4-Difluorobenzyl)-N-(2-(dimethylamino)ethyl)-1-isobutyl-1H-indazole-6-carboxamide] | 49 | 100 | 85 | 92 | 93 | 94 | 100 | 100 | 100 | 100 | 100 | 89 | 100 | 98 | 98 | 69 | 86 | 85
CN(C)CCNC(=O)c1cc2c(cnn2CC2CCCCC2)cc1Cc1ccc(F)cc1F [Compound 95, 1-(Cyclohexylmethyl)-5-(2,4-difluorobenzyl)-N-(2-(dimethylamino)ethyl)-1H-indazole-6-carboxamide] | 100 | 60 | 88 | 81 | 100 | 99 | 100 | 100 | 100 | 93 | 92 | 100 | 100 | 100 | 100 | 100 | 92 | 97
